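Following 48 hours of exposure in 96-well plates, responses at five concentrations were used to interpolate endpoints linearly. GI50 marks 50% less growth. At the TGI there is no net growth.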

This assay concerns MDA-MB-468 breast. The assay can be described thus: DTP human tumour cell line panel, 48 h.
As to `C(=N\Nc1ccccn1)/c1ccccn1`, the 50% growth inhibitory concentration (GI50) (as a rule, the concentration that inhibits growth by half) was 237 nM and the TGI (usually the concentration giving total growth inhibition) came out at 0.748 µM.
With `C#Cc1cccc(Nc2ncnc3cc(OCCOC)c(OCCOC)cc23)c1`, the GI50 is 124 nM and the TGI turned out to be 2.81 µM.
Consider `O=C(/C=C/c1cccnc1)NCCCCC1CCN(C(=O)c2ccccc2)CC1`, for which the GI50 was 27500 nM and the TGI is greater than 100 µM.
On the same counts, the results for `COCCn1cc(-c2csc(-c3c[nH]c4ccccc34)n2)c2cccnc21` are 974 nM and 6.68 µM.
On to `CC(=O)OC[C@H]1O[C@@H](n2ccc(=O)[nH]c2=O)[C@H](OC(C)=O)[C@@H]1OC(C)=O`, for which the GI50 is greater than 100000 nM and the TGI was greater than 100 µM.
On the same counts, the results for `C=C1C(=O)O[C@H]2[C@H]1CC/C(COC(=O)NCc1cc3ccccc3[nH]1)=C\CC[C@@]1(C)O[C@@H]21` are 1060 nM and 3.4 µM.
Taken in the same sequence, the figures for `CC12CCC3C(CC=C4CC(O)CCC43C)C1C/C(=C\N1CCCC1)C2=O` (stereo not drawn) were 51200 nM and greater than 100 µM.
On the same counts, the results for `N#Cc1c(C(=O)c2ccccc2)cnn1-c1ccccc1` are greater than 25000 nM and greater than 25 µM.
As to `OCc1cn(Cc2cccc(Cl)c2)c2ccccc12`, the GI50 is 13.4 nM and the TGI stood at 0.0333 µM.
On to `COc1ccccc1-[n+]1cc(-c2ccc(-c3ccccc3)cc2)n2c1CCCCC2`, for which the TGI came out at 0.838 µM.
As to `c1ccc(Cc2nc3ccc(Nc4ncnc5ccccc45)cc3[nH]2)cc1`, the GI50 was 6650 nM and the TGI was found to be 24.3 µM.
Taken in the same sequence, the figures for `COc1ccc(-c2cc(-c3ccc(OC)c(OC)c3)nc(SCCCC(=O)NO)n2)cc1` were 1180 nM and 3.44 µM.
On the same counts, the results for `Cc1cn(C2CC(F)C(CO)O2)c(=O)[nH]c1=O` (stereo not drawn) are greater than 100000 nM and greater than 100 µM.
Regarding `Cc1ccc(C(=O)Nc2ccc(CN3CCN(C)CC3)c(C(F)(F)F)c2)cc1C#Cc1cnc(N)cc1C#N`, the GI50 was 399 nM and the TGI was found to be 1.23 µM.
Taken in the same sequence, the figures for `CCN(Cc1cccc(OC)c1)c1ccc(CO)c(Cl)c1` were 17.4 nM and 0.0456 µM.
Taken in the same sequence, the figures for `Cc1c(C#N)cccc1-c1cc(-c2cn(Cc3cccc(C(C)(C)O)n3)nn2)nc(N)n1` were 7580 nM and 55.6 µM.
Taken in the same sequence, the figures for `N[C@@H](Cc1c[nH]c2ccccc12)C(=O)NC1CCN(C(=O)c2c[nH]c3ccccc23)CC1` were 54200 nM and greater than 100 µM.
Consider `CCCCn1c2cc(OCc3cn(-c4ccc(Cl)cc4)nn3)ccc2c2ccnc(C)c21`, for which the GI50 was 5230 nM and the TGI is greater than 33.3 µM.
On the same counts, the results for `C[C@]12CCC3[C@@H](C[C@@H]4SC(Nc5ccccc5)=N[C@@]45CC(=O)CC[C@]35C)[C@@H]1CCC2=O` (stereo partly drawn) are 3590 nM and 14.6 µM.
Consider `C=C1[C@@H](C)[C@H]2[C@H](Cc3ccccc3)NC(=O)[C@]23OC(=O)/C=C/[C@H](O)CCC[C@@H](C)C/C=C/[C@H]3[C@@H]1O`, for which the GI50 was 1860 nM and the TGI was greater than 100 µM.
In the case of `COc1ccc(-n2c(SCc3cc(OC)c(OC)c(OC)c3)nc3ccc(C)cc3c2=O)c(OC)c1`, the GI50 was 3160 nM and the TGI was 9.38 µM.
Taken in the same sequence, the figures for `Cc1ccc(C(CN(C)C)C(=O)c2ccccc2)cc1` (stereo not drawn) were 1320 nM and 3.61 µM.
Taken in the same sequence, the figures for `C1CC[N-]CC1.C1CC[N-]CC1.C1CC[N-]CC1.C1CC[N-]CC1.[Cl][Rh][Cl]` were 2170 nM and 15.3 µM.
For `CC1=C([Se]CC(OC(=O)CC[Se]c2ccccc2)C(=O)NCCCCCC(=O)OCc2ccccc2)C(=O)c2ccccc2C1=O` (stereo not drawn), the GI50 was 1930 nM and the TGI amounted to 4.63 µM.
Consider `CC(C)(C)N1CCC1C(N)=O` (stereo not drawn), for which the GI50 was greater than 100000 nM and the TGI was greater than 100 µM.
For the compound `CC(C)Oc1cc2c(cc1O)CC[C@@H]1[C@@H]2CC[C@]2(C)[C@@H](O)CC[C@@H]12`, the GI50 is 4160 nM and the TGI was determined as 25.6 µM.
On the same counts, the results for `Oc1ccc(/C=N\Nc2ccccn2)c(O)c1` are 2430 nM and 8.56 µM.

The values are drawn from PubChem BioAssay (NCI).
